Converted amounts (≈) assume the structure as drawn.
Tests used:
Nucleic Acid = conditions: Bos taurus
Description: Increase of calf thymus DNA denaturation temperature (delta Tm)

Staphylococcus aureus = assay: microbe, parasite or virus in culture
Description: Tested for antimicrobial activity against Staphylococcus aureus PCM 458 at concentration of 0.01-5 uM/mL

Micrococcus luteus = assay: microbe, parasite or virus in culture
Description: Tested for antimicrobial activity against Micrococcus luteus PCM 525 at concentration of 0.01-5 uM/mL

Candida albicans = assay: microbe, parasite or virus in culture
Description: Tested for antimicrobial activity against Candida albicans (clinical isolate) at concentration of 0.01-5 uM/mL

Trichophyton benhamiae = assay: microbe, parasite or virus in culture
Description: Tested for antimicrobial activity against Trichophyton mentagrophytes (clinical isolate) at concentration of 0.01-5 uM/mL

Description for KB: Cytotoxicity in vitro against KB cell line
Description for physchem: Acid ionization constant is determined

Row | SMILES | pKa (physchem) | ID50 (KB) [uM ml-1] | ΔTm (Nucleic Acid) [°C] | MIC (Staphylococcus aureus) [µM] | MIC (Micrococcus luteus) [µM] | MIC (Candida albicans) [µM] | MIC (Trichophyton benhamiae) [µM]
1 | Cc1ccc2[nH]c3nc4ccccc4c(C)c3c2c1 | 5.8 | 0.1 | 0.9 |  |  |  | 
2 | c1ccc2[nH]c3nc4ccccc4c-3cc2c1 | 5.55 | 0.6 | 0.3 |  |  |  | 
3 | Cc1ccc2c(c1)c(C)c1c3ccccc3nc-1n2C | 7.6 | 0.003 | 13.3 | 60 (≈ 15.6 µg/mL) | 30 (≈ 7.81 µg/mL) | 15 (≈ 3.91 µg/mL) | 30 (≈ 7.81 µg/mL)
4 | Cc1c2c3ccccc3nc-2n(C)c2ccccc12 | 7.45 | 0.004 | 11 | 120 (≈ 29.6 µg/mL) | 60 (≈ 14.8 µg/mL) | 30 (≈ 7.39 µg/mL) | 60 (≈ 14.8 µg/mL)
5 | Cc1c2ccncc2c(C)c2c1[nH]c1ccccc12 [ELLIPTECINE] | 7.4 | 0.07 | 9.8 |  |  |  | 
6 | Cc1ccc2[nH]c3nc4ccccc4c-3c(C)c2c1 | 5.73 | 0.1 | 1.4 |  |  |  | 
7 | Cc1ccc2nc3n(C)c4ccc(C)cc4c(C)c-3c2c1 | 7.68 | 0.002 | 19 | 30 (≈ 8.23 µg/mL) | 15 (≈ 4.12 µg/mL) | 15 (≈ 4.12 µg/mL) | 30 (≈ 8.23 µg/mL)
8 | Cc1cccc2c(C)c3c(nc12)[nH]c1ccccc13 | 5.78 | 0.1 | 1.1 |  |  |  | 
9 | COc1cccc2c1C(=O)c1c(O)c3c(c(O)c1C2=O)C[C@@](O)(C(=O)CO)C[C@@H]3O[C@H]1C[C@H](N)[C@H](O)[C@H](C)O1 |  |  | 13 |  |  |  | 
10 | Cc1ccc2nc3[nH]c4ccc(C)cc4c(C)c-3c2c1 | 5.98 | 0.1 | 1.6 |  |  |  | 
11 | Cc1c2c3ccccc3nc-2[nH]c2ccccc12 | 5.7 | 0.2 | 0.7 |  |  |  | 
12 | Cc1c2c3ccccc3nc-2n(C)c2c(C)cccc12 | 7.62 | 0.009 | 10.4 | 250 (≈ 65.1 µg/mL) | 120 (≈ 31.2 µg/mL) | 120 (≈ 31.2 µg/mL) | 60 (≈ 15.6 µg/mL)
13 | Cn1c2nc3ccccc3c-2cc2ccccc21 [NEOCRYPTOLEPINE] | 7.24 | 0.006 | 5.2 | 250 (≈ 58.1 µg/mL) | 250 (≈ 58.1 µg/mL) | 120 (≈ 27.9 µg/mL) | 60 (≈ 13.9 µg/mL)
